System: hNT neurons
Assay: Soma size and neurite outgrowth of TH+ hNT cells (image analysis)
Format: cell-based, human
Details: for soma sizes versus control: 5DIV NaCl or KCl-treated cultures; for neurite outgrowth versus control: NaCl and KCl-treated 5DIV
Protocol: The same series of slides immunostained for TH were employed to measure the soma size (μm^2) and neurite outgrowth (μm) of appropriately 50 TH+ cells per representative culture experiment using a computerized image analysis program (Image-Pro Plus, Media Cybernetics, Inc., Silver Springs, Md.) at 20× objective. The results in the morphological assessment study are reported as mean ±SEM and were analyzed using Student's t-test.

Row | SMILES | soma sizes versus control | neurite outgrowth versus control
1 | [Cl-].[K+] [KCl] | not significantly different from control | did not significantly differ from control values
2 | [Cl-].[Na+] [NaCl] | not significantly different from control | did not significantly differ from control values

Reference: patent publication US20040028656A1, “Survival of neurons” (University of South Florida, a non-profit institution, priority 1998, published 2004)
